Literature values in patent US20200308123A1, “Novel formulation of metaxalone” (ICEUTICA PTY LTD., priority 2009, published 2020).
Read-outs that look alike come from different tables or passages of the source.

Legend:
[1] = system: Hepatic Cytochrome P450 enzymes
[2] = system: major CYP enzymes such as CYP1A2, CYP2A6, CYP2B6, CYP2C8, CYP2C9, CYP2C19, CYP2D6, CYP2E1, and CYP3A4
[3] = system: major CYP enzymes such as CYP1A2, CYP2B6, and CYP3A4; settings: in vitro

For `Cc1cc(C)cc(OCC2CNC(=O)O2)c1` (stereo not drawn) [Metaxalone], the “CYP enzymes that appear to metabolize metaxalone” value [1] is listed as “CYP1A2, CYP2D6, CYP2E1, and CYP3A4 and, to a lesser extent, CYP2C8, CYP2C9, and CYP2FC19”, the “lipophilicity (log P)” value is listed as 2.42 and the solubility (in 96% ethanol) is listed as “soluble”. The solubility (in chloroform) was “freely soluble”, the solubility (in ether) was “practically insoluble” and the solubility (in methanol) was “soluble”. For the same compound, the solubility (in water) was “practically insoluble”, the “inhibition of major CYP enzymes” value [2] was “does not significantly inhibit” and the “induction of major CYP enzymes” value [3] was “does not significantly induce”.
